Assay results as given in patent US20250381198A1 (Melt Pharmaceuticals, Inc., priority 2024, published 2025).

Columns and labels:
[1] = tested on: subjects undergoing cataract extraction with lens replacement (CELR); assay: Phase 2: subjects requiring rescue sedative medication; format: in vivo, human; conditions: Visit 2 (Day 1); full analysis set
Procedure: (§1) The number of subjects achieving analgesia response (observed) in the full analysis set was determined. Success in analgesia response was defined as NPRS<4 at the available at the available four intraoperative timepoints and a failure otherwise (e.g., any interoperative pain rescue was assumed to be a failure. Results are provided in TABLE 25. The number of subjects completing the surgery is provided in TABLE 26, and the number of subjects completing the surgery without interruption is provided in TABLE 27. For this measure, subjects completing the surgery without interruption (other than rescue medication) due to pain or anxiety were considered successes. The number of subjects requiring rescue sedative medication and those requiring analgesic medication are provided in TABLES 28 and 29, respectively. For all TABLES 25-29, p-Values between pairs of treatments were calculated and are provided.

[2] = tested on: subjects undergoing cataract extraction with lens replacement (CELR); assay: Phase 2: subjects wanting study drug again for a second surgery (11-point Likert scale); format: in vivo, human; conditions: for Want Study Drug Again, Mean / Want Study Drug Again, Median: 11-point Likert scale of 0 (not likely at all) to 10 (extremely likely), full analysis set
From the text: Post-operation, subjects were asked whether they would want the study drug again for a second surgery using an 11-point Likert scale of 0 (not likely at all) to 10 (extremely likely).

[3] = tested on: subjects undergoing cataract extraction with lens replacement (CELR); assay: Phase 2: subjects requiring rescue analgesic medication; format: in vivo, human; conditions: Visit 2 (Day 1); full analysis set
Procedure: as §1

[4] = tested on: subjects undergoing cataract extraction with lens replacement (CELR); assay: Phase 2: subjects completing the surgery (and without interruption); format: in vivo, human; conditions: Visit 2 (Day 1); full analysis set
Procedure: as §1

[5] = tested on: subjects undergoing cataract extraction with lens replacement (CELR); assay: Phase 2: mean intraoperative analgesia by the numeric pain rating scale; conditions: for Intraoperative Numeric Pain Rating Scale, Mean / Intraoperative Numeric Pain Rating Scale, Median: full analysis set
Procedure: Mean intraoperative analgesia by the numeric pain rating scale (Min=0; Max=9) was assayed for each subject in the full analysis set at intraoperative timepoints: insertion of the speculum; corneal incision; insertion of phacoemulsion probe; insertion of the synthetic replacement lens. An average of the available timepoints was also calculated.

[6] = 11-point Likert scale, unpaired t-test
[7] = Average of Available Timepoints, adjusted for site (carry forward)
[8] = Average of Available Timepoints, adjusted for site (carry forward), repeated measures model with covariates for study center
[9] = Average of Available Timepoints, carry forward
[10] = Average of Available Timepoints, carry forward, repeated measures model
[11] = Average of Available Timepoints, observed
[12] = Average of Available Timepoints, observed, repeated measures model
[13] = Corneal incision, adjusted for site (carry forward)
[14] = Corneal incision, carry forward
[15] = Insertion of the phacoemulsion probe, adjusted for site (carry forward)
[16] = Insertion of the phacoemulsion probe, carry forward
[17] = Insertion of the phacoemulsion probe, observed
[18] = Insertion of the speculum, adjusted for site (carry forward)
[19] = Insertion of the speculum, carry forward
[20] = Insertion of the speculum, observed
[21] = Insertion of the synthetic replacement lens, adjusted for site (carry forward)
[22] = Insertion of the synthetic replacement lens, carry forward
[23] = Insertion of the synthetic replacement lens, observed
[24] = adjusted for site (carry forward), repeated measures model with covariates for study center
[25] = carry forward, repeated measures model
[26] = observed, repeated measures model

## CNC1(c2ccccc2Cl)CCCCC1=O (centres unmarked) [Ketamine 50 mg]
[1]
  Subjects Requiring Rescue Sedative Medication, Intraoperatively, %: (6.3) %
  Subjects Requiring Rescue Sedative Medication, No, %: (63.3) %
  Subjects Requiring Rescue Sedative Medication, Pre-operatively, %: (30.4) %
  Subjects Requiring Rescue Sedative Medication, Yes, %: (36.7) %
[2]
  Want Study Drug Again, Mean: 7.6
  Want Study Drug Again, Median: 10.0
[2]; [6]
  Want Study Drug Again, Mean Difference Versus Placebo: −0.05
[3]
  Subjects Requiring Rescue Analgesic Medication, No, %: (59.5) %
  Subjects Requiring Rescue Analgesic Medication, Yes, %: (40.5) %
[4]
  Subjects Completing the Surgery without Interruption, No, %: (6.3) %
  Subjects Completing the Surgery without Interruption, Yes, %: (93.7) %
[5]; [7]
  Intraoperative Numeric Pain Rating Scale, Mean: 2.16
  Intraoperative Numeric Pain Rating Scale, Median: 1.75
[5]; [8]
  Intraoperative Numeric Pain Rating Scale, LS Mean: 1.89
[5]; [9]
  Intraoperative Numeric Pain Rating Scale, Mean: 2.16
  Intraoperative Numeric Pain Rating Scale, Median: 1.75
[5]; [10]
  Intraoperative Numeric Pain Rating Scale, LS Mean: 2.16
[5]; [11]
  Intraoperative Numeric Pain Rating Scale, Mean: 2.00
  Intraoperative Numeric Pain Rating Scale, Median: 1.75
[5]; [12]
  Intraoperative Numeric Pain Rating Scale, LS Mean: 2.22
[5]; [13]
  Intraoperative Numeric Pain Rating Scale, Mean: 1.8
  Intraoperative Numeric Pain Rating Scale, Median: 1.0
[5]; [14]
  Intraoperative Numeric Pain Rating Scale, Mean: 1.8
  Intraoperative Numeric Pain Rating Scale, Median: 1.0
[5]; Corneal incision, observed
  Intraoperative Numeric Pain Rating Scale, Mean: 1.7
  Intraoperative Numeric Pain Rating Scale, Median: 1.0
[5]; [15]
  Intraoperative Numeric Pain Rating Scale, Mean: 2.5
  Intraoperative Numeric Pain Rating Scale, Median: 2.0
[5]; [16]
  Intraoperative Numeric Pain Rating Scale, Mean: 2.5
  Intraoperative Numeric Pain Rating Scale, Median: 2.0
[5]; [17]
  Intraoperative Numeric Pain Rating Scale, Mean: 2.1
  Intraoperative Numeric Pain Rating Scale, Median: 2.0
[5]; [18]
  Intraoperative Numeric Pain Rating Scale, Mean: 1.3.
  Intraoperative Numeric Pain Rating Scale, Median: 1.0
[5]; [19]
  Intraoperative Numeric Pain Rating Scale, Mean: 1.1
  Intraoperative Numeric Pain Rating Scale, Median: 1.0
[5]; [20]
  Intraoperative Numeric Pain Rating Scale, Mean: 1.1
  Intraoperative Numeric Pain Rating Scale, Median: 1.0
[5]; [21]
  Intraoperative Numeric Pain Rating Scale, Mean: 3.3
  Intraoperative Numeric Pain Rating Scale, Median: 3.0
[5]; [22]
  Intraoperative Numeric Pain Rating Scale, Mean: 3.3
  Intraoperative Numeric Pain Rating Scale, Median: 3.0
[5]; [23]
  Intraoperative Numeric Pain Rating Scale, Mean: 2.5
  Intraoperative Numeric Pain Rating Scale, Median: 2.0
[5]; [24]
  Numeric Pain Rating Scale, LS Mean Difference Versus Placebo: −0.30
[5]; [25]
  Numeric Pain Rating Scale, LS Mean Difference Versus Placebo: −0.32
[5]; [26]
  Numeric Pain Rating Scale, LS Mean Difference Versus Placebo: −0.26

## Cc1ncc2n1-c1ccc(Cl)cc1C(c1ccccc1F)=NC2 [Midazolam 3 mg]
[1]
  Subjects Requiring Rescue Sedative Medication, Intraoperatively, %: (8.6) %
  Subjects Requiring Rescue Sedative Medication, No, %: (65.4) %
  Subjects Requiring Rescue Sedative Medication, Pre-operatively, %: (25.9) %
  Subjects Requiring Rescue Sedative Medication, Yes, %: (34.6) %
[2]
  Want Study Drug Again, Mean: 8.4
  Want Study Drug Again, Median: 10.0
[2]; [6]
  Want Study Drug Again, Mean Difference Versus Ketamine: 0.80
  Want Study Drug Again, Mean Difference Versus Placebo: 0.75
[3]
  Subjects Requiring Rescue Analgesic Medication, No, %: (56.8) %
  Subjects Requiring Rescue Analgesic Medication, Yes, %: (43.2) %
[4]
  Subjects Completing the Surgery without Interruption, No, %: (0) %
  Subjects Completing the Surgery without Interruption, Yes, %: (100.0) %
[5]; [7]
  Intraoperative Numeric Pain Rating Scale, Mean: 2.37
  Intraoperative Numeric Pain Rating Scale, Median: 2.00
[5]; [8]
  Intraoperative Numeric Pain Rating Scale, LS Mean: 2.12
[5]; [9]
  Intraoperative Numeric Pain Rating Scale, Mean: 2.37
  Intraoperative Numeric Pain Rating Scale, Median: 2.00
[5]; [10]
  Intraoperative Numeric Pain Rating Scale, LS Mean: 2.37
[5]; [11]
  Intraoperative Numeric Pain Rating Scale, Mean: 2.18
  Intraoperative Numeric Pain Rating Scale, Median: 2.00
[5]; [12]
  Intraoperative Numeric Pain Rating Scale, LS Mean: 2.46
[5]; [13]
  Intraoperative Numeric Pain Rating Scale, Mean: 1.8
  Intraoperative Numeric Pain Rating Scale, Median: 1.0
[5]; [14]
  Intraoperative Numeric Pain Rating Scale, Mean: 1.8
  Intraoperative Numeric Pain Rating Scale, Median: 1.0
[5]; Corneal incision, observed
  Intraoperative Numeric Pain Rating Scale, Mean: 1.8
  Intraoperative Numeric Pain Rating Scale, Median: 1.0
[5]; [15]
  Intraoperative Numeric Pain Rating Scale, Mean: 2.9
  Intraoperative Numeric Pain Rating Scale, Median: 3.0
[5]; [16]
  Intraoperative Numeric Pain Rating Scale, Mean: 2.9
  Intraoperative Numeric Pain Rating Scale, Median: 3.0
[5]; [17]
  Intraoperative Numeric Pain Rating Scale, Mean: 2.5
  Intraoperative Numeric Pain Rating Scale, Median: 2.0
[5]; [18]
  Intraoperative Numeric Pain Rating Scale, Mean: 1.1
  Intraoperative Numeric Pain Rating Scale, Median: 0.0
[5]; [19]
  Intraoperative Numeric Pain Rating Scale, Mean: 1.1
  Intraoperative Numeric Pain Rating Scale, Median: 0.0
[5]; [20]
  Intraoperative Numeric Pain Rating Scale, Mean: 1.1
  Intraoperative Numeric Pain Rating Scale, Median: 0.0
[5]; [21]
  Intraoperative Numeric Pain Rating Scale, Mean: 3.6
  Intraoperative Numeric Pain Rating Scale, Median: 4.0
[5]; [22]
  Intraoperative Numeric Pain Rating Scale, Mean: 3.6
  Intraoperative Numeric Pain Rating Scale, Median: 4.0
[5]; [23]
  Intraoperative Numeric Pain Rating Scale, Mean: 2.9
  Intraoperative Numeric Pain Rating Scale, Median: 3.0
[5]; [24]
  Numeric Pain Rating Scale, LS Mean Difference Versus Ketamine: 0.22
  Numeric Pain Rating Scale, LS Mean Difference Versus Placebo: −0.08
[5]; [25]
  Numeric Pain Rating Scale, LS Mean Difference Versus Ketamine: 0.20
  Numeric Pain Rating Scale, LS Mean Difference Versus Placebo: −0.12
[5]; [26]
  Numeric Pain Rating Scale, LS Mean Difference Versus Ketamine: 0.24
  Numeric Pain Rating Scale, LS Mean Difference Versus Placebo: −0.01
